We go through 9 molecules from patent US8148388B2, “2,4 (4,6) pyrimidine derivatives” (Janssen Pharmaceutica, N.V., priority 2004, dated 2012).

What all share (assay type): biochemical
In test [1] the target is T1, EGFR-kinase domain (Homo sapiens, UniProt P00533).
T1 construct: 0.5 μg EGFR-kinase domain/well
In words: In vitro inhibition of EGFR (Flash Plate assay). To be noted: full dose response 1.10^−6M to 1.10^−10M, read-out: C12 EGFR flash Score. As to the method: The in vitro inhibition of EGFR was assessed using either the Flash Plate technology or the glass-fiber filter technology as described by Davies, S. P. et al., Biochem J. (2000), 351; p. 95-105. The Flash Plate technology is generally described by B. A. Brown et al. in High Throughput Screening (1997), p. 317-328. Editor(s): Devlin, John P. Publisher: Dekker, New York, N.Y.
In the Flash Plate EGFR kinase reaction assay, a kinase substrate consisting of biotinylated poly(L-glutamic acid-L-tyrosine) (poly(GT)biotin), is incubated with the aforementioned protein in the presence of (^33P) radiolabeled ATP. (^33P) phosphorylation of the substrate is subsequently measured as light energy emitted using a streptavidin-coated Flash Plate (PerkinElmer Life Sciences) by trapping and quantifying the binding of the biotin tagged and radiolabeled substrate.
The EGFR kinase reaction is performed at 30° C. for 60 minutes in a 96-well microtiter FlashPlate (PerkinElmer Life Sciences). For each of the tested compounds a full dose response 1.10^−6M to 1.10^−10M has been performed. IRESSA® and Tarceva™ (erlotinib) were used as reference compounds. The 100 μl reaction volume contains 54.5 mM TrisHCl pH 8.0, 10 mM MgCl2, 100 μM Na3VO4, 5.0 μM unlabeled ATP, 1 mM DTT, 0.009% BSA, 0.8 μCi AT^33P, 0.35 μg/well poly(GT)biotin and 0.5 μg EGFR-kinase domain/well.
The reaction is stopped by aspirating the reaction mixture and washing the plate 3× with 200 μl wash/stop buffer (PBS+100 mM EDTA). After the final wash step 200 μl of wash/stop buffer was added to each well and the amount of phosphorylated (^33P) Poly(GT)biotin determined by counting (30 sec/well) in a microtiterplate scintillation counter.

In test [2] the target is ErbB2 (h) (Homo sapiens, UniProt P04626). In words: ErbB2 human kinase assay (filter). The settings on record: read-out: C13 ERBB 2 Filter Score. As to the method: Similarly to the above the in vitro inhibition of two other kinases, i.e. human ErbB2 and human ErbB4 was tested for some of the compounds according to the invention.
Sequence of ErbB2 (h) (P04626 23-1255): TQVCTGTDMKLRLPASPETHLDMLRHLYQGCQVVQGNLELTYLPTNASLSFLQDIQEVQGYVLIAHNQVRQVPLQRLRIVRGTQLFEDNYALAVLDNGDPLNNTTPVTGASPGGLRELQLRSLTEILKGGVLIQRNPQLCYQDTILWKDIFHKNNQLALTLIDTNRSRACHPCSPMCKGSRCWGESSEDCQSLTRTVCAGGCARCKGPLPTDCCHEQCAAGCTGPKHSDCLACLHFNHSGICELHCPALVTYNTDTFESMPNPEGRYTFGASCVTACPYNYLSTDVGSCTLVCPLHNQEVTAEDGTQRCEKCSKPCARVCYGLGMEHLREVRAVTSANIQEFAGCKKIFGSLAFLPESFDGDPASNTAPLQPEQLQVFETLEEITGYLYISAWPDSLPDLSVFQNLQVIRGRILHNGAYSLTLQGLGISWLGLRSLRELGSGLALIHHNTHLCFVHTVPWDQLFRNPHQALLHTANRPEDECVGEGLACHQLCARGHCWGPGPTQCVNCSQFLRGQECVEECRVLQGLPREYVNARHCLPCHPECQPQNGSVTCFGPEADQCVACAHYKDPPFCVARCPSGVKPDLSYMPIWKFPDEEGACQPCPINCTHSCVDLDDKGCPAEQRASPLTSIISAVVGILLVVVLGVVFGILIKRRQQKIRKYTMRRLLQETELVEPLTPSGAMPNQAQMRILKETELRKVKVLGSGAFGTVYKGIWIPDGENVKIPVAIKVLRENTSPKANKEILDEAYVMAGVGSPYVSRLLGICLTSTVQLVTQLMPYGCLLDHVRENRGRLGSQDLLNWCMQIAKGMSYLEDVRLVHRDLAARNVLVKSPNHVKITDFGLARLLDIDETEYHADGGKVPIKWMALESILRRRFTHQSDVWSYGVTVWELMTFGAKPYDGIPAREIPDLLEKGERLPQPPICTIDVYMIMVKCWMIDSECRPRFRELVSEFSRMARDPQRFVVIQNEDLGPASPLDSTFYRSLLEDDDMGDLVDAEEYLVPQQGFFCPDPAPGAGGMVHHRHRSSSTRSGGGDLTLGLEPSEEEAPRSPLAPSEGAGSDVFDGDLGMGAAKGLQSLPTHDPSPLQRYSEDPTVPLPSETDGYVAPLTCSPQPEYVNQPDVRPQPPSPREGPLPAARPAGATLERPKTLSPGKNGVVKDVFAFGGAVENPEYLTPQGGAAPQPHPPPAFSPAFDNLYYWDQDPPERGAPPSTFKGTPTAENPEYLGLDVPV
In a final reaction volume of 25 μl, ErbB2 (h) (5-10 mU) is incubated with 8 mM MOPS pH 7.0, 0.2 mM EDTA, 10 mM MnCl2, 0.1 mg/ml poly(Glu, Tyr) 4:1, 10 mM MgAcetate and [γ-33P-ATP] (specific activity approx. 500 cpm/pmol, concentration as required). The reaction is initiated by the addition of the MgATP mix. After incubation for 40 minutes at room temperature, the reaction is stopped by the addition of 5 μl of a 3% phosphoric acid solution. 10 μl of the reaction is then spotted onto a Filtermat A and washed three times for 5 minutes in 75 mM phosphoric acid and once in methanol prior to drying and scintillation counting.

For test [3], the target named is Yes (h) (Homo sapiens, UniProt P07947). Kind of test: Yes human kinase assay (glass-fiber filter). To be noted: test concentration of 10^−6M. The essentials:
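Yes (h) (5-10 mU) with 0.1 mg/ml poly(Glu, Tyr) 4:1 in 8 mM MOPS pH 7.0, 0.2 mM EDTA, 10 mM MgAcetate and [γ-^33P-ATP], 40 minutes at room temperature. Stopped with phosphoric acid; substrate-bound ^33P counted on glass-fiber filter by scintillation.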

In test [4] the target is Lyn (h) (Homo sapiens, UniProt P07948). In words: Lyn human kinase assay (glass-fiber filter). To be noted: test concentration of 10^−6M. The essentials: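 Human Lyn (5-10 mU) phosphorylating poly(Glu,Tyr) 4:1 at 0.1 mg/ml with [γ-33P]ATP (concentration as required) in 50 mM Tris pH 7.5, 10 mM Mg acetate, 40 min at room temperature. Stopped with phosphoric acid; substrate-bound radioactivity counted on glass-fibre filter.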

Test [5] has as its target cSRC (h) (Homo sapiens, UniProt P12931). Kind of test: cSRC human kinase assay (glass-fiber filter). The settings on record: test concentration of 10^−6M. A digest of the protocol: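 Radiometric assay: kinase and substrate are incubated with [33P]ATP, with the reaction started by MgATP mix. The reaction is spotted on P30 filtermat, washed in 75 mM phosphoric acid and methanol, and the bound 33P is measured by scintillation counting.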

Test [6] addresses Fms (h) (Homo sapiens, UniProt P07333). Kind of test: Fms human kinase assay (glass-fiber filter). To be noted: test concentration of 10^−6M. A digest of the protocol:
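Radiometric filter-binding assay: Fms (5-10 mU) with 250 μM peptide substrate and [γ-33P]ATP in 8 mM MOPS pH 7.0, 10 mM Mg acetate, 40 min at room temperature. Reaction stopped with phosphoric acid; substrate-bound 33P counted on P30 filtermat.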

Test [7] deals with GSK3B (h) (Homo sapiens, UniProt P49841). In words: GSK3β human kinase assay (glass-fiber filter). To be noted: test concentration of 10^−6M. A digest of the protocol: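 Human GSK3β (5-10 mU) with 20 μM phospho GS2 peptide, [γ-^33P]ATP, 8 mM MOPS pH 7.0, 10 mM Mg acetate; 40 min at room temperature. Stopped with phosphoric acid; substrate phosphorylation read as filter-bound radioactivity by scintillation counting.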
Sequence of GSK3B (h) (P49841 whole entry): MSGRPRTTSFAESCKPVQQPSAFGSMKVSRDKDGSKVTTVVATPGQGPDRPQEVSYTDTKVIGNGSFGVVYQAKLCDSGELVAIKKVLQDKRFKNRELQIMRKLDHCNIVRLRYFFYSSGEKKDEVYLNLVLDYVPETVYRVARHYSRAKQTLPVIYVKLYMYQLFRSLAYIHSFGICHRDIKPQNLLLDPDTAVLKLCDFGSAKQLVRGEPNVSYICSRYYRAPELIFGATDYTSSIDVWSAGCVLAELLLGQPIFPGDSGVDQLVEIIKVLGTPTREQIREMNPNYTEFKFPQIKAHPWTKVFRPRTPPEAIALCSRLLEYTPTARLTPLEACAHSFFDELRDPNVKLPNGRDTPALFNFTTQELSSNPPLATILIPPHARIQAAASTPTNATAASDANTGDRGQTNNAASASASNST

For test [8], the target named is EGFR (h) (Homo sapiens, UniProt P00533). In words: EGFR human kinase assay (glass-fiber filter). The settings on record: test concentration of 10^−6M. The essentials:
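Human EGFR (5-10 mU) phosphorylated 0.1 mg/ml poly(Glu, Tyr) 4:1 in 8 mM MOPS pH 7.0, 0.2 mM EDTA, 10 mM MnCl2, 10 mM MgAcetate with [γ-33P]ATP at unspecified concentration. Incubation lasted 40 minutes at room temperature, was stopped with phosphoric acid, and filter-bound 33P was counted by scintillation.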

In test [9] the target is CSK (h) (Homo sapiens, UniProt P41240). In words: CSK human kinase assay (glass-fiber filter). The settings on record: test concentration of 10^−6M. The method, then:
In the glass-fiber filter technology the activity of the kinase of interest is measured using an appropriate substrate that is incubated with the aforementioned kinase protein in the presence of (^33P) radiolabeled ATP. (^33P) Phosphorylation of the substrate is subsequently measured as radioactivity bound on a glass fiber-filter.
All kinases are pre-diluted to a 10× working concentration prior to addition into the assay. The composition of the dilution buffer for each kinase is detailed below.
In a final reaction volume of 25 μl, CSK (h) (5-10 mU) is incubated with 50 mM Tris pH 7.5, 0.1 mM EGTA, 0.1 mM Na3VO4, 0.1% β-mercaptoethanol, 0.1 mg/ml poly(Glu, Tyr) 4:1, 10 mM MnCl2, 10 mM MgAcetate and [γ-^33P-ATP] (specific activity approx. 500 cpm/pmol, concentration as required). The reaction is initiated by the addition of the MgATP mix. After incubation for 40 minutes at room temperature, the reaction is stopped by the addition of 5 μl of a 3% phosphoric acid solution. 10 μl of the reaction is then spotted onto a Filtermat A and washed three times for 5 minutes in 75 mM phosphoric acid and once in methanol prior to drying and scintillation counting.

Test [10] concerns the target Lck (h) (Homo sapiens, UniProt P06239). Kind of test: Lck human kinase assay (glass-fiber filter). The settings on record: test concentration of 10^−6M. A digest of the protocol: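 Kinase activity measured as transfer of (^33P) from radiolabeled MgATP to substrate, captured on P30 glass-fiber filtermat, washed in 75 mM phosphoric acid and methanol, then scintillation counted.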

The target in test [11] is Fes (h) (Homo sapiens, UniProt P07332). In words: Fes human kinase assay (glass-fiber filter). To be noted: test concentration of 10^−6M. The essentials: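 Human Fes (5–10 mU) was incubated with 0.1 mg/ml poly(Glu,Tyr) 4:1 in 8 mM MOPS pH 7.0, 0.2 mM EDTA, 10 mM Mg acetate and [γ-33P]ATP for 40 min at room temperature. The reaction was stopped with phosphoric acid, and substrate phosphorylation was quantified by filter binding and scintillation counting.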

Test [12] concerns the target Flt3 (h) (Homo sapiens, UniProt P36888). In words: Flt3 human kinase assay (glass-fiber filter). The settings on record: test concentration of 10^−6M; read-out: C6 score (inhibition of Flt3 human). The essentials: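 Human Flt3 (5-10 mU) with 50 μM peptide substrate in 8 mM MOPS pH 7.0, 0.2 mM EDTA, 10 mM Mg acetate and [γ-33P]ATP (concentration as required), 40 min at room temperature. Reaction stopped with phosphoric acid; substrate 33P incorporation counted on P30 glass-fiber filter.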

The target of test [13] is Abl (h) (Homo sapiens, UniProt P00519). Kind of test: Abl human kinase assay (glass-fiber filter). To be noted: test concentration of 10^−6M.

Where only a bound is given, the exact number is not on record here.

Sequence of CSK (h) (P41240 whole entry): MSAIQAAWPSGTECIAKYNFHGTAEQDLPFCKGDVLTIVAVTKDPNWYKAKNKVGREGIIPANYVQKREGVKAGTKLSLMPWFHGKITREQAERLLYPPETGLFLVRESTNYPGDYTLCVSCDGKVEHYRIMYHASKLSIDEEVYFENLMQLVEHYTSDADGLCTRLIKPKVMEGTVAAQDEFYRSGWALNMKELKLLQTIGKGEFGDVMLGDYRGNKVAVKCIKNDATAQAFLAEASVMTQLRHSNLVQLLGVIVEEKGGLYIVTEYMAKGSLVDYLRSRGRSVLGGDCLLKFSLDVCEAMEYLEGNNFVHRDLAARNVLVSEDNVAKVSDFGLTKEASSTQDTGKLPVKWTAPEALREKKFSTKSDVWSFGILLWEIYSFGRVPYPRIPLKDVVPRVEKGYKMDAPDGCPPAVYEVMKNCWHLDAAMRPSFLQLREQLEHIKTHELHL
T1 sequence (P00533 712-979 limits assumed): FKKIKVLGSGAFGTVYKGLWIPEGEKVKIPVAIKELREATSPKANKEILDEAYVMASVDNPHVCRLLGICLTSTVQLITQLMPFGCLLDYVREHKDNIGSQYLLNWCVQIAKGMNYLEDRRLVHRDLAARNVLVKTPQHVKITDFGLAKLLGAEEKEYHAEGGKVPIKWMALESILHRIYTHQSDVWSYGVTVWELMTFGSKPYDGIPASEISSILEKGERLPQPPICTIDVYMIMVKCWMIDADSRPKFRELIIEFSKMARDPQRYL
Sequence of Fms (h) (P07333 20-972): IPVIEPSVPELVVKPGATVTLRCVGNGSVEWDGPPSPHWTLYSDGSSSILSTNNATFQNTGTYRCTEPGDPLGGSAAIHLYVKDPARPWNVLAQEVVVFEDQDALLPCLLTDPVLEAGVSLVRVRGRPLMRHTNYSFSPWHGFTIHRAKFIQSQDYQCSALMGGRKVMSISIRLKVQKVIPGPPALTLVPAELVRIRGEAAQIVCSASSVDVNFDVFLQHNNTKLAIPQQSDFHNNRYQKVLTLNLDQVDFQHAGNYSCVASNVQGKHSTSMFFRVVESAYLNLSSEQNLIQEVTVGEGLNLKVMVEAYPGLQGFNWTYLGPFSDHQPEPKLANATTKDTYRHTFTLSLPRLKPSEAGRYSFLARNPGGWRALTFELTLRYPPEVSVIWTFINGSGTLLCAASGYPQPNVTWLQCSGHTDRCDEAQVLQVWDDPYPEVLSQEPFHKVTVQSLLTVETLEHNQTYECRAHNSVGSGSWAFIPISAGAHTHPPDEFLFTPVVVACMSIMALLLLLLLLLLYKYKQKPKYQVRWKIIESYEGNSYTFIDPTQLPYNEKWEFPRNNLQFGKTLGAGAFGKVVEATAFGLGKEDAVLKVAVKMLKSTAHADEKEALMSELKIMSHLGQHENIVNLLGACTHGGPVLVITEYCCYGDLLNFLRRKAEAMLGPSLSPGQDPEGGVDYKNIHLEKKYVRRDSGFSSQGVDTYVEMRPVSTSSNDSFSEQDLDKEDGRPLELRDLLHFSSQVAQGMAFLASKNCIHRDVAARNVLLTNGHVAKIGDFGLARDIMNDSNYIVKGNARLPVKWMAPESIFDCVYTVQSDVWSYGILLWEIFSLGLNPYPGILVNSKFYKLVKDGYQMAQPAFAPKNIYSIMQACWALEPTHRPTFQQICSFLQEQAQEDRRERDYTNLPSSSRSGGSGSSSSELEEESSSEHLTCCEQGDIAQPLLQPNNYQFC
Sequence of Yes (h) (P07947 whole entry): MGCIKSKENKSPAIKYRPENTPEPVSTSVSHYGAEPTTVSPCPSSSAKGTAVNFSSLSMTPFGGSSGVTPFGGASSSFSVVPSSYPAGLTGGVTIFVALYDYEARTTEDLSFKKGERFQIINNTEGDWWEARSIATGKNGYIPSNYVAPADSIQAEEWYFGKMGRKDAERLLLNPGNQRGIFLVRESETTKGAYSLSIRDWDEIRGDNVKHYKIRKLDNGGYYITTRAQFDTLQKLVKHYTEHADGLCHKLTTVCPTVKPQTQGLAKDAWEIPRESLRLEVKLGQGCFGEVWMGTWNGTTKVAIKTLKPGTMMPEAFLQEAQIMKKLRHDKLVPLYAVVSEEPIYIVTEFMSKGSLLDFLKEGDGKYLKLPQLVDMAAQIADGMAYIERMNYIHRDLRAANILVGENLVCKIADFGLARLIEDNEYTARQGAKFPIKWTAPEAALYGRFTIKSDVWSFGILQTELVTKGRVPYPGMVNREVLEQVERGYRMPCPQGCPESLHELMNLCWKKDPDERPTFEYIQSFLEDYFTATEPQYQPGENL
Sequence of cSRC (h) (P12931 whole entry): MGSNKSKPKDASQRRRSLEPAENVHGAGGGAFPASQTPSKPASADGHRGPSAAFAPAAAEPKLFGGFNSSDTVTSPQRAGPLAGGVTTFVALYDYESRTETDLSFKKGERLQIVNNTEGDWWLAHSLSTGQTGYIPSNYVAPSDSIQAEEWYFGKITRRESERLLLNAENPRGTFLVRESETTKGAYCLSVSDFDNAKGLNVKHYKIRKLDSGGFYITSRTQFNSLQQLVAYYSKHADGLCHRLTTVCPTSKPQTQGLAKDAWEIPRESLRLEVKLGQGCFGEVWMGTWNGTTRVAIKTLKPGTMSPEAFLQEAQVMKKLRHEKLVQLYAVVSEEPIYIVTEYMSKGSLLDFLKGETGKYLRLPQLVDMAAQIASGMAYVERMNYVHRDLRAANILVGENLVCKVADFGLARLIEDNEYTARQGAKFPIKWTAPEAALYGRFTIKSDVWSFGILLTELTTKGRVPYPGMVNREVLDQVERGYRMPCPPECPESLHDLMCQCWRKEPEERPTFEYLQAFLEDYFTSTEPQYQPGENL
Sequence of Lck (h) (P06239 whole entry): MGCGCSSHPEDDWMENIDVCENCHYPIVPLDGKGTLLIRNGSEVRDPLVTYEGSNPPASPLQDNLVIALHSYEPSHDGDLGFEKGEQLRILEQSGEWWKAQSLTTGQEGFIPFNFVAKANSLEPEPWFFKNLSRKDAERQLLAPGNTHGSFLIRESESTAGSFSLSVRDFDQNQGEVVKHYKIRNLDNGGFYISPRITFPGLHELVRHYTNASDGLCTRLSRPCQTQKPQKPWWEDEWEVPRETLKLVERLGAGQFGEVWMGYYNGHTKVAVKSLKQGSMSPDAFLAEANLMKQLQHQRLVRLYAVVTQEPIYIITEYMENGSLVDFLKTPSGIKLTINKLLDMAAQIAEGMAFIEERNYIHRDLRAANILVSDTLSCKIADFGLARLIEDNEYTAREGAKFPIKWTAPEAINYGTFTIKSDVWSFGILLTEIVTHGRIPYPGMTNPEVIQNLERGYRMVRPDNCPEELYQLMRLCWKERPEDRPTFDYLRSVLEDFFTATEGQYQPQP

In the case of `COc1ccc2cc1OCCNC(=O)C1CN(CCO1)C(=O)CN(C)Cc1cccc(c1)Nc1cc(ncn1)N2` (racemic) [Compound 158], the IC50 was under 1000 nM in [1] and 1000 to 10000 nM in test [2].

With `COc1ccc2cc1OCCCCCCCCOc1ccc(Br)cc1Nc1cc(ncn1)N2` [Compound 38, 1H,7H-2,6: 12,8-dimetheno-13,22,1,3,5,7-benzodioxatetraazacyclotetracosine, 25-bromo-14,15,16,17,18,19,20,21-octahydro-11-methoxy-], the “C11 score (inhibition of Yes human)” value in [3] was 1 (Score 1=10-30% inhibition). For the same molecule, in [4], the “C10 score (inhibition of Lyn human)” value is listed as 1 (Score 1=10-30% inhibition). Further, in [5], the “C3 score (inhibition of cSRC human)” value was 1 (Score 1=10-30% inhibition). In addition, the “C7 score (inhibition of Fms human)” value in test [6] is listed as 2 (Score 2=30-60% inhibition). Moreover, in test [7], the “C8 score (inhibition of GSK3β human)” value was 1 (Score 1=10-30% inhibition). For the same molecule, the “C4 score (inhibition of EGFR human)” value in test [8] was 3 (Score 3=60-80% inhibition). For the same molecule, the “C2 score (inhibition of CSK human)” value in test [9] is given as 1 (Score 1=10-30% inhibition).

Take `COc1ccc2cc1OCCCCCCCCCOc1ccc(Cl)cc1Nc1cc(ncn1)N2` [Compound 39, 1H,7H-2,6: 12,8-dimetheno-14H-13,23,1,3,5,7-benzodioxatetraazacyclopentacosine, 26-chloro-15,16,17,18,19,20,21,22-octahydro-11-methoxy-]: in test [10], the “C9 score (inhibition of Lck human)” value was 1 (Score 1=10-30% inhibition). In addition, in test [6], the “C7 score (inhibition of Fms human)” value was 1 (Score 1=10-30% inhibition). Also, in test [7], the “C8 score (inhibition of GSK3β human)” value is 1 (Score 1=10-30% inhibition). Moreover, the “C4 score (inhibition of Fes human)” value in test [11] is listed as 1 (Score 1=10-30% inhibition). Also, in [9], the “C2 score (inhibition of CSK human)” value is on record as 1 (Score 1=10-30% inhibition).

Usually inhibition stands for the drop in the measured response relative to a control, in per cent. `O=C1COc2cccc(c2)Nc2cc(ncn2)Nc2cccc(c2)CN2CCN1CC2` [Compound 42, 20-oxa-1,8,10,12,14,23-hexaazapentacyclo[21.2.2.1~3,7~.1~9,13~.1~15,19~]triaconta-3,5,7(30),9,11,13(29),15,17,19(28)-nonaen-22-one]: the inhibition at 1 µM in test [3] (read-out: C11 score (inhibition of Yes human)) fell in the range of 60 to 80%; in test [5] (read-out: C3 score (inhibition of cSRC human)), 10 to 30%; in [10] (read-out: C9 score (inhibition of Lck human)) it was 30 to 60%; in [6] (read-out: C7 score (inhibition of Fms human)), 30 to 60%; in test [7] (read-out: C8 score (inhibition of GSK3β human)) it was 10 to 30%; in test [9] (read-out: C2 score (inhibition of CSK human)), 30 to 60%. Moreover, the inhibition at 1 µM in test [12] lay in the range of 30 to 60%.

Regarding `Cl.Cl.O=C1CNC(=O)Cc2ccc(Cl)cc2Nc2cc(ncn2)Nc2ccc(OCCCN3CCOCC3)c(c2)OCCN1` [Compound 107, 1H,7H-6,2:8,12-dimetheno-13,1,3,5,7,16,19-benzoxahexaazacyclotricosine-17,20(14H)-dione, 24-chloro-15,16,18,19,21-pentahydro-11-[3-(4-morpholinyl)propoxy]-, hydrochloric acid salt (1:2)], in test [3], the “C11 score (inhibition of Yes human)” value is listed as 4 (Score 4=>80% inhibition). In test [4], the “C10 score (inhibition of Lyn human)” value is given as 4 (Score 4=>80% inhibition). The “C3 score (inhibition of cSRC human)” value in test [5] is listed as 4 (Score 4=>80% inhibition). Moreover, the “C1 score (inhibition of Abl human)” value in test [13] is 4 (Score 4=>80% inhibition). Further, the “C9 score (inhibition of Lck human)” value in [10] is on record as 4 (Score 4=>80% inhibition). Besides, the “C4 score (inhibition of EGFR human)” value in test [8] is 4 (Score 4=>80% inhibition). In addition, in test [11], the “C4 score (inhibition of Fes human)” value is recorded as 4 (Score 4=>80% inhibition). In [9], the “C2 score (inhibition of CSK human)” value is 3 (Score 3=60-80% inhibition).

On to `COc1ccc2cc1OCCNC(=O)C(Cc1ccc(C(F)(F)F)cc1)NC(=O)CN(C)Cc1cccc(c1)Nc1cc(ncn1)N2` (centres unmarked) [Compound 114], for which the IC50 was under 1000 nM in test [1] and 1000 to 10000 nM in [2].

With `CCN1CCNC(=O)C(CCCCN(C)C)NC(=O)CN(C)Cc2cccc(c2)Nc2cc(ncn2)Nc2cccc(c2)C1` (centres unmarked) [Compound 153], the IC50 in test [2] was 1000 to 10000 nM.

`CCN1CCNC(=O)C(CC(C)C)NC(=O)CN(C)Cc2cccc(c2)Nc2cc(ncn2)Nc2cccc(c2)C1` (centres unmarked) [Compound 154]: the IC50 in test [1] and in [2] was 1000 to 10000 nM throughout.

As to `O=C1COc2cccc(c2)Nc2cc(ncn2)Nc2cccc(c2)OCCCCCN1` [Compound 163], in test [2], the IC50 is under 1000 nM.
